ChEMBL document CHEMBL5325423, “Discovery of 7H-Pyrrolo[2,3-d]pyrimidine Derivatives as potent hematopoietic progenitor kinase 1 (HPK1) inhibitors” (Eur J Med Chem, 2023)

What was measured:
[1] = biological target: T1, Mitogen-activated protein kinase kinase kinase kinase 1 (Homo sapiens, UniProt Q92918); experiment: Inhibition of human HPK1 using myelin basic protein and [gamma33P]ATP as substrate incubated for 40 mins in presence of Mg/ATP by radiometric scintillation counting analysis
[2] = biological target: T1, Mitogen-activated protein kinase kinase kinase kinase 1; experiment: Inhibition of wild type HPK1 (unknown origin) using FAM-FPQAAsLPPYFAKKK peptide as substrate in presence of ATP by caliper assay
[3] = biological target: T1, Mitogen-activated protein kinase kinase kinase kinase 1; experiment: Inhibition of HPK1 (unknown origin)
[4] = biological target: T1, Mitogen-activated protein kinase kinase kinase kinase 1; experiment: Inhibition of human HPK1 in human Jurkat T cells assessed as inhibition of SLP76 phosphorylation
[5] = biological target: Tyrosine-protein kinase ZAP-70 (Homo sapiens) (UniProt P43403); experiment: Inhibition of ZAP70 (unknown origin) assessed as remaining activity at 1 uM relative to control
[6] = biological target: Epidermal growth factor receptor (Homo sapiens) (UniProt P00533); experiment: Inhibition of EGFR (unknown origin) assessed as remaining activity at 1 uM relative to control
[7] = biological target: Tyrosine-protein kinase receptor UFO (Homo sapiens) (UniProt P30530); experiment: Inhibition of AXL (unknown origin) assessed as remaining activity at 1 uM relative to control
[8] = biological target: Serine/threonine-protein kinase PAK 4 (Homo sapiens) (UniProt O96013); experiment: Inhibition of PAK4 (unknown origin) assessed as remaining activity at 1 uM relative to control
[9] = biological target: Tyrosine-protein kinase JAK3 (Homo sapiens) (UniProt P52333); experiment: Inhibition of JAK3 (unknown origin) assessed as remaining activity at 1 uM relative to control
[10] = biological target: Tyrosine-protein kinase JAK1 (Homo sapiens) (UniProt P23458); experiment: Inhibition of JAK1 (unknown origin) assessed as remaining activity at 1 uM relative to control
[11] = biological target: Leucine-rich repeat serine/threonine-protein kinase 2 (Homo sapiens) (UniProt Q5S007); experiment: Inhibition of LRRK2 (unknown origin) at 1 uM
Sequence of Leucine-rich repeat serine/threonine-protein kinase 2 (Homo sapiens) (Q5S007 whole entry): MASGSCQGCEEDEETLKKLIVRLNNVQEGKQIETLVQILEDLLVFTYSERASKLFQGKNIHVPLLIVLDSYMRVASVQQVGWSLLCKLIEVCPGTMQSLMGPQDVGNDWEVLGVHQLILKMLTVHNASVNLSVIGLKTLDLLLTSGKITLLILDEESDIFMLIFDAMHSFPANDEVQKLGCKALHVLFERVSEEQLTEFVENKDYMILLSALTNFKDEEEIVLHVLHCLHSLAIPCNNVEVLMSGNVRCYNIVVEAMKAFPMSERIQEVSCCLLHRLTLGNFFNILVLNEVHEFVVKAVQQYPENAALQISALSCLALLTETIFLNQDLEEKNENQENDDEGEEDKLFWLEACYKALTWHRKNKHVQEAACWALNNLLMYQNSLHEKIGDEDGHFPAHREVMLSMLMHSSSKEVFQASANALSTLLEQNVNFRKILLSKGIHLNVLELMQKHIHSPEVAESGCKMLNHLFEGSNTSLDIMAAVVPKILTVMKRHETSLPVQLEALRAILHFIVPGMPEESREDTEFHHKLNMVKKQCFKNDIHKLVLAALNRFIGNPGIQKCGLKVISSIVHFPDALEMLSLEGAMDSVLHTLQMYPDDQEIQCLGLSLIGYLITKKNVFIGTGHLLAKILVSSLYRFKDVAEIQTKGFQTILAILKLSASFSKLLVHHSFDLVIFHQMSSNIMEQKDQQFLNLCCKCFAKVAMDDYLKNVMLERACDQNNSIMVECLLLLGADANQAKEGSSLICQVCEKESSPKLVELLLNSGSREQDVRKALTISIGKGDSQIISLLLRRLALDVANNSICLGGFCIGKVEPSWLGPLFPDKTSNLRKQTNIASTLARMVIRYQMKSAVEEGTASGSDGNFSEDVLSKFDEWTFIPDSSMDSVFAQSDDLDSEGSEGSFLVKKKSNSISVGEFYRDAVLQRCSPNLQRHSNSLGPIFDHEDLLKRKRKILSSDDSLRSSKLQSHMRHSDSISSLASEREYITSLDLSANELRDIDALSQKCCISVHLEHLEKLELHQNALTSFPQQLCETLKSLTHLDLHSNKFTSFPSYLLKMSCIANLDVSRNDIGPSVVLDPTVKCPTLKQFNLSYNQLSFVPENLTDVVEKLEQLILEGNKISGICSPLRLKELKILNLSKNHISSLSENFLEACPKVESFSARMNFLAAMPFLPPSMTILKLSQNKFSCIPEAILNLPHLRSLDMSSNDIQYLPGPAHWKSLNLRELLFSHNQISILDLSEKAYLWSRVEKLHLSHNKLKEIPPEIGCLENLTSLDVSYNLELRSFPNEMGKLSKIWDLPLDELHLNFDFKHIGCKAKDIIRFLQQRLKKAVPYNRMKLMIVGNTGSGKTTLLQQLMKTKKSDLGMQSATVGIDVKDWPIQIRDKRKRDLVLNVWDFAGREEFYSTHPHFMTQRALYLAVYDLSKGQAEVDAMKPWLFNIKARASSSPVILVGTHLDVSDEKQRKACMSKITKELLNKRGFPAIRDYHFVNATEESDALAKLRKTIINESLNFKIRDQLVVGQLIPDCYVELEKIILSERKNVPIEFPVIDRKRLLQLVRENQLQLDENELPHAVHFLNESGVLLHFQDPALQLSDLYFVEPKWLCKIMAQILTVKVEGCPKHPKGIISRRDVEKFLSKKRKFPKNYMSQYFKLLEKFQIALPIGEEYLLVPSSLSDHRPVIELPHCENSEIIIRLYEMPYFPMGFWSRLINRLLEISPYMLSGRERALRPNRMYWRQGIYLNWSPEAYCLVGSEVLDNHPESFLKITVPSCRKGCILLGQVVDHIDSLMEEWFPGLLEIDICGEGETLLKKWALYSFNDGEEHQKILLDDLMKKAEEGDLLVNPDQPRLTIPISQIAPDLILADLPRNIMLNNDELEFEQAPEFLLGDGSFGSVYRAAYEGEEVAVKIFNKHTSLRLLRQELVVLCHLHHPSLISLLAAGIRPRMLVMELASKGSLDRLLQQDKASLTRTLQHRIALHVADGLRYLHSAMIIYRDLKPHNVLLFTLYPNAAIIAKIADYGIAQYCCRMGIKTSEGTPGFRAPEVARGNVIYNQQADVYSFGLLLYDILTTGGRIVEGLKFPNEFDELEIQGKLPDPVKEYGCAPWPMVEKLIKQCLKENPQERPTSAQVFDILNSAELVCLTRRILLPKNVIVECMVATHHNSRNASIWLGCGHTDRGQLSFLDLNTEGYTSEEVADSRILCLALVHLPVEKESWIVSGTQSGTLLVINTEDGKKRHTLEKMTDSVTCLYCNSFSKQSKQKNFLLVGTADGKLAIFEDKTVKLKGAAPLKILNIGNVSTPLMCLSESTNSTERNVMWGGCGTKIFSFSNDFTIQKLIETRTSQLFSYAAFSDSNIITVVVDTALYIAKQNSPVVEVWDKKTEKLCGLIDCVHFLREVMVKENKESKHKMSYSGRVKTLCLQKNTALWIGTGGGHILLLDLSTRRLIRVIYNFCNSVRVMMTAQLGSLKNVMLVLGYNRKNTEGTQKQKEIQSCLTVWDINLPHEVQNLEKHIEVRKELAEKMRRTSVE

[12] = biological target: Mitogen-activated protein kinase 10 (Homo sapiens) (UniProt P53779); experiment: Inhibition of JNK3 (unknown origin) assessed as remaining activity at 1 uM relative to control
[13] = biological target: Tyrosine-protein kinase Lck (Homo sapiens) (UniProt P06239); experiment: Inhibition of LCK (unknown origin) assessed as remaining activity at 1 uM relative to control
[14] = biological target: Tyrosine-protein kinase BTK (Homo sapiens) (UniProt Q06187); experiment: Inhibition of BTK (unknown origin) assessed as remaining activity at 1 uM relative to control
[15] = biological target: Dual specificity protein kinase TTK (Homo sapiens) (UniProt P33981); experiment: Inhibition of TTK (unknown origin) assessed as remaining activity at 1 uM relative to control
[16] = biological target: Tyrosine-protein kinase SYK (Homo sapiens) (UniProt P43405); experiment: Inhibition of SYK (unknown origin) assessed as remaining activity at 1 uM relative to control
[17] = biological target: T1, Mitogen-activated protein kinase kinase kinase kinase 1; experiment: Inhibition of human HPK1 in human Jurkat T cells assessed as increase in anti-human CD3 stimulated IL-2 secretion preincubated for 10 mins followed by anti-human CD3 stimulation and measured after 24 hrs by ELISA; assay type: cell-based
[18] = biological target: Insulin-like growth factor 1 receptor (Homo sapiens) (UniProt P08069); experiment: Inhibition of IGF-1R (unknown origin) assessed as remaining activity at 1 uM relative to control
[19] = biological target: Focal adhesion kinase 1 (Homo sapiens) (UniProt Q05397); experiment: Inhibition of FAK (unknown origin) assessed as remaining activity at 1 uM relative to control
Sequence of Focal adhesion kinase 1 (Homo sapiens) (Q05397 2-1052 limits assumed): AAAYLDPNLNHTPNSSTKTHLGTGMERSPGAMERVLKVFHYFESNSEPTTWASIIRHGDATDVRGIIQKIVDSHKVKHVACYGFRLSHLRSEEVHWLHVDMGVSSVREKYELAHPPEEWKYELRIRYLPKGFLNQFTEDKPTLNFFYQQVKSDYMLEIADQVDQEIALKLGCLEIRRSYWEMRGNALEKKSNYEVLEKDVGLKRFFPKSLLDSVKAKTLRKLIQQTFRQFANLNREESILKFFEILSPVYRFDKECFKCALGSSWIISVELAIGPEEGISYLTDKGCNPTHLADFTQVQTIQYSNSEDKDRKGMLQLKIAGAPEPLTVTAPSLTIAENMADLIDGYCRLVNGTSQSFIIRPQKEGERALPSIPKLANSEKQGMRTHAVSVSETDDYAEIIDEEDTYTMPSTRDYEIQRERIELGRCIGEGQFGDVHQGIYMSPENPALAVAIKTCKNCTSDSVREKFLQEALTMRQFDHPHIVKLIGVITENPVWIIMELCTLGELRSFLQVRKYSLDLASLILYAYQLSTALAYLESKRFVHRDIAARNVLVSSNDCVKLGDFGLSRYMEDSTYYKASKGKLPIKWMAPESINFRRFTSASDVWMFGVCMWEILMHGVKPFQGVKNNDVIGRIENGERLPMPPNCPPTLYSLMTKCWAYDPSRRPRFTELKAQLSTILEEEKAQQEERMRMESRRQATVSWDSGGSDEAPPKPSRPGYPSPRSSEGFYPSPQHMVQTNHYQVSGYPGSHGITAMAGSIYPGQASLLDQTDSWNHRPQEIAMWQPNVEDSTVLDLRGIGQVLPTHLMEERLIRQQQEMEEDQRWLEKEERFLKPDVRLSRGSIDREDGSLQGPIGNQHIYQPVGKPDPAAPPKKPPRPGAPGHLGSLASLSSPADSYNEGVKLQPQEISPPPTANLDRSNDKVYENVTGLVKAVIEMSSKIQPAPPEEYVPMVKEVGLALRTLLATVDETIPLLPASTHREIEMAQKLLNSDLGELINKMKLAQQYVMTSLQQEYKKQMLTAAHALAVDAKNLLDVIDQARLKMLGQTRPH

[20] = biological target: T1, Mitogen-activated protein kinase kinase kinase kinase 1; experiment: Inhibition of human HPK1 in anti-human CD3 stimulated human Jurkat T cells assessed as inhibition of SLP76 phosphorylation preincubated for 10 mins followed by anti-human CD3 stimulation and measured after 60 mins by Western blot analysis; assay type: cell-based
[21] = biological target: Mitogen-activated protein kinase 8 (Homo sapiens) (UniProt P45983); experiment: Inhibition of JNK1 (unknown origin) assessed as remaining activity at 1 uM relative to control
[22] = biological target: Interleukin-1 receptor-associated kinase 4 (Homo sapiens) (UniProt Q9NWZ3); experiment: Inhibition of IRAK4 (unknown origin) at 1 uM
Sequence of Interleukin-1 receptor-associated kinase 4 (Homo sapiens) (Q9NWZ3 whole entry): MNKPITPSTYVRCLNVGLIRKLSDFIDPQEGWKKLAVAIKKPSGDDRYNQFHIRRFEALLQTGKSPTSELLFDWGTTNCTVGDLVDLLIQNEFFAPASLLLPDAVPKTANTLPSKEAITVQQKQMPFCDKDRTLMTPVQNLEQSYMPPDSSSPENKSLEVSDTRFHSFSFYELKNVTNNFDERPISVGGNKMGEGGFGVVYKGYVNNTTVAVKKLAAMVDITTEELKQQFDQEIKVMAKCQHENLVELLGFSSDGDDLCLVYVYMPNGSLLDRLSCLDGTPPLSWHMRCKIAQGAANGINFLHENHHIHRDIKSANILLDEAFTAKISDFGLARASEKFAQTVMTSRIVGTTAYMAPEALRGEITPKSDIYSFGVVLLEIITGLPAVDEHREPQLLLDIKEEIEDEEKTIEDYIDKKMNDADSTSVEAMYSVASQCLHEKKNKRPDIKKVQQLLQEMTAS

[23] = biological target: Mitogen-activated protein kinase 9 (Homo sapiens) (UniProt P45984); experiment: Inhibition of JNK2 (unknown origin) assessed as remaining activity at 1 uM relative to control
[24] = biological target: ALK tyrosine kinase receptor (Homo sapiens) (UniProt Q9UM73); experiment: Inhibition of ALK (unknown origin) assessed as remaining activity at 1 uM relative to control
[25] = biological target: Tyrosine-protein kinase ABL1 (Homo sapiens) (UniProt P00519); experiment: Inhibition of ABL (unknown origin) assessed as remaining activity at 1 uM relative to control
[26] = biological target: Leucine-rich repeat serine/threonine-protein kinase 2 (Homo sapiens) (UniProt Q5S007); experiment: Inhibition of LRRK2 (unknown origin) assessed as remaining activity at 1 uM relative to control
[27] = biological target: Tyrosine-protein kinase Fyn (Homo sapiens) (UniProt P06241); experiment: Inhibition of FYN (unknown origin) assessed as remaining activity at 1 uM relative to control
[28] = biological target: Tyrosine-protein kinase JAK2 (Homo sapiens) (UniProt O60674); experiment: Inhibition of JAK2 (unknown origin) assessed as remaining activity at 1 uM relative to control
[29] = biological target: Interleukin-1 receptor-associated kinase 4 (Homo sapiens) (UniProt Q9NWZ3); experiment: Inhibition of IRAK4 (unknown origin) assessed as remaining activity at 1 uM relative to control
[30] = biological target: ALK tyrosine kinase receptor (Homo sapiens) (UniProt Q9UM73); experiment: Inhibition of ALK (unknown origin) at 1 uM
[31] = biological target: Receptor-type tyrosine-protein kinase FLT3 (Homo sapiens) (UniProt P36888); experiment: Inhibition of FLT3 (unknown origin) assessed as remaining activity at 1 uM relative to control

T1 sequence (Q92918 whole entry): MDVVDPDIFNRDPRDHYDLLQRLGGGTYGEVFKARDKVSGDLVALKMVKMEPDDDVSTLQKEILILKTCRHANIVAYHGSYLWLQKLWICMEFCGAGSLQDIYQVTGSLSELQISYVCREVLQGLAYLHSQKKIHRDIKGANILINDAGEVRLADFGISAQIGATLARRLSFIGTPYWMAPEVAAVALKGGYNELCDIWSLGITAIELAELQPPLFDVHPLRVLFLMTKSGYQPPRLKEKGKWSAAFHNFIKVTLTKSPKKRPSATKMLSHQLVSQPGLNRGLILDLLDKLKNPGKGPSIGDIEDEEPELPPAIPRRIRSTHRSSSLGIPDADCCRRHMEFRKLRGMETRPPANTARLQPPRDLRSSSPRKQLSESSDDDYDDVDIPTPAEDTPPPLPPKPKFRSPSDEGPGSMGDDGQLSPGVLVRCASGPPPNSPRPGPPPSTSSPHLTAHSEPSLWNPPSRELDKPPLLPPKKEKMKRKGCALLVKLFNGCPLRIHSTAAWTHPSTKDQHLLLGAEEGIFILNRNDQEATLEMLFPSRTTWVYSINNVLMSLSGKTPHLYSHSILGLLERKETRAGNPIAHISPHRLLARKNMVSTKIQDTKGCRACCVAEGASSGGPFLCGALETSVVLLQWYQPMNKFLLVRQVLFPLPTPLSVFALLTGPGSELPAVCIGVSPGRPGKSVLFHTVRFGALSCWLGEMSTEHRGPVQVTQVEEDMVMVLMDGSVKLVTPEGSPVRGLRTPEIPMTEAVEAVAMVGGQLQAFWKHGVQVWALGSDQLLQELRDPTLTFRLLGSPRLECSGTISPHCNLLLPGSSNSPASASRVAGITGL

COc1ccc(CN(C)C)cc1Nc1nc(Nc2ccccc2S(=O)(=O)N(C)C)c2c(-c3cccnc3)c[nH]c2n1
IC50 [1]: 97.5 nM

COc1cc2c(cc1Nc1nc(Nc3ccccc3S(=O)(=O)N(C)C)c3c(-c4cccnc4C)c[nH]c3n1)CN(C)CC2
IC50 [1]: 29.5 nM

COc1cc2c(cc1Nc1nc(Nc3ccccc3S(=O)(=O)N(C)C)c3c(-c4ccoc4)c[nH]c3n1)CN(C)CC2
IC50 [1]: 4 nM

CN1CCc2cc(Nc3nc(Nc4ccccc4S(=O)(=O)N(C)C)c4c(-c5cccnc5)c[nH]c4n3)ccc2C1
IC50 [1]: 6 nM

COc1cc2c(cc1Nc1nc(Nc3ccccc3C)c3cc[nH]c3n1)CN(C)CC2
IC50 [1]: 454 nM

COc1cc(N2CCOCC2)ccc1Nc1nc(Nc2ccccc2S(=O)(=O)N(C)C)c2c(-c3cccnc3)c[nH]c2n1
IC50 [1]: 781 nM

COc1cc(Nc2nc(Nc3ccccc3S(=O)(=O)N(C)C)c3c(-c4cccnc4)c[nH]c3n2)ccc1N1CCOCC1
IC50 [1]: 4.5 nM

COc1cc2c(cc1Nc1nc(Nc3ccccc3S(=O)(=O)N(C)C)c3c(-c4ccn(C)c(=O)c4)c[nH]c3n1)CN(C)CC2
IC50 [1]: 9 nM

COc1cc2c(cc1Nc1nc(Nc3ccccc3S(=O)(=O)N3CCCC3)c3cc[nH]c3n1)CN(C)CC2
IC50 [1]: 1.5 nM

CCN(CC)S(=O)(=O)c1ccccc1Nc1nc(Nc2cc3c(cc2OC)CCN(C)C3)nc2[nH]ccc12
IC50 [1]: 7 nM

COc1cc2c(cc1Nc1nc(Nc3ccccc3S(=O)(=O)N3CCC3)c3cc[nH]c3n1)CN(C)CC2
IC50 [1]: 1 nM

COc1cc2c(cc1Nc1nc(Nc3ccccc3OC(C)C)c3cc[nH]c3n1)CN(C)CC2
IC50 [1]: 84 nM

COc1cc2c(cc1Nc1nc(Nc3ccccc3S(=O)(=O)N(C)C)c3cc[nH]c3n1)CN(C)CC2
IC50 [1]: 2.5 nM

CCOc1cc(Nc2nc(Nc3ccccc3S(=O)(=O)N(C)C)c3c(-c4cccnc4)c[nH]c3n2)ccc1N1CCOCC1
IC50 [1]: 5.5 nM

COc1cc2c(cc1Nc1nc(Nc3ccccc3P(C)(C)=O)c3cc[nH]c3n1)CN(C)CC2
IC50 [1]: 7.5 nM

COc1cc2c(cc1Nc1nc(Nc3ccccc3S(=O)(=O)N(C)C)c3c(-c4ccncc4)c[nH]c3n1)CN(C)CC2
IC50 [1]: 9.5 nM

COc1cc2c(cc1Nc1nc(Nc3ccccc3S(=O)(=O)N(C)C)c3c(-c4cccnc4)c[nH]c3n1)CN(C(C)C)CC2
IC50 [1]: 12 nM

COc1cc2c(cc1Nc1nc(Nc3ccccc3S(=O)(=O)N(C)C)c3c(-c4ccc(N)nc4)c[nH]c3n1)CN(C)CC2
IC50 [1]: 12 nM

COc1cc2c(cc1Nc1nc(Nc3ccccc3)c3cc[nH]c3n1)CN(C)CC2
IC50 [1]: 313 nM

COc1cc2c(cc1Nc1nc(Nc3ccccc3S(=O)(=O)N3CCC3)c3c(-c4cccnc4)c[nH]c3n1)CN(C)CC2
IC50 [1]: 45 nM

COc1cc2c(cc1Nc1nc(Nc3ccccc3S(=O)(=O)N(C)C)c3c(-c4cn[nH]c4)c[nH]c3n1)CN(C)CC2
IC50 [1]: 3 nM

CCCN(CCC)S(=O)(=O)c1ccccc1Nc1nc(Nc2cc3c(cc2OC)CCN(C)C3)nc2[nH]ccc12
IC50 [1]: 73 nM

COc1cc2c(cc1Nc1nc(Nc3ccccc3S(=O)(=O)N3CCOCC3)c3cc[nH]c3n1)CN(C)CC2
IC50 [1]: 349 nM

COc1cc2c(cc1Nc1nc(Nc3ccccc3S(=O)(=O)N3CCCC3)c3c(-c4cccnc4)c[nH]c3n1)CN(C)CC2
IC50 [1]: 4.5 nM

COc1cc2c(cc1Nc1nc(Nc3ccccc3S(=O)(=O)N3CC(C)(C)C3)c3cc[nH]c3n1)CN(C)CC2
IC50 [1]: 12.5 nM

COc1cc2c(cc1Nc1nc(Nc3ccccc3S(=O)(=O)N(C)C)c3c(-c4cnn(C)c4)c[nH]c3n1)CN(C)CC2
IC50 [1]: 9 nM

COc1cc2c(cc1Nc1ncc(Cl)c(Nc3ccccc3P(C)(C)=O)n1)CN(C)CC2
IC50 [2]: < 5 nM

COc1cc2c(cc1Nc1nc(Nc3ccccc3S(=O)(=O)N(C)C)c3c(-c4ccccc4)c[nH]c3n1)CN(C)CC2
IC50 [1]: > 1000 nM

COc1cc2c(cc1Nc1nc(Nc3ccccc3Cl)c3cc[nH]c3n1)CN(C)CC2
IC50 [1]: 631 nM

COc1cc2c(cc1Nc1nc(Nc3ccccc3S(=O)(=O)C(C)C)c3cc[nH]c3n1)CN(C)CC2
IC50 [1]: 4.5 nM

Cn1cc(Nc2ncc(C3=CCC[C@@H](NC(=O)c4ccccc4)C3)nc2C(N)=O)cn1
IC50 [3]: 86 nM
IC50 [4]: 150 nM

COc1cc2c(cc1Nc1nc(Nc3ccccc3S(=O)(=O)N3CCCCC3)c3cc[nH]c3n1)CN(C)CC2
IC50 [1]: 17.5 nM

CN1CCc2ccc(Nc3nc(Nc4ccccc4S(=O)(=O)N(C)C)c4c(-c5cccnc5)c[nH]c4n3)cc2C1
IC50 [1]: 1.5 nM

COc1cc2c(cc1Nc1nc(Nc3ccccc3S(=O)(=O)N3CCC(C)(C)CC3)c3cc[nH]c3n1)CN(C)CC2
IC50 [1]: 356 nM

COc1cc2c(cc1Nc1nc(Nc3ccccc3S(=O)(=O)N(C)C)c3c(-c4c(C)noc4C)c[nH]c3n1)CN(C)CC2
IC50 [1]: 42 nM

COc1cc2c(cc1Nc1nc(Nc3ccccc3F)c3cc[nH]c3n1)CN(C)CC2
IC50 [1]: 640 nM

COc1cc2c(cc1Nc1nc(Nc3ccccc3OC)c3cc[nH]c3n1)CN(C)CC2
IC50 [1]: 127 nM

CN1CCc2cc(Cl)c(Nc3nc(Nc4ccccc4S(=O)(=O)N(C)C)c4c(-c5cccnc5)c[nH]c4n3)cc2C1
Activity [5]: > 50%
Activity [6]: > 50%
Activity [7]: < 50%
Activity [8]: > 50%
Activity [9]: > 50%
Activity [10]: > 50%
inhibition [11]: > 90%
Activity [12]: > 50%
Activity [13]: > 50%
IC50 [1]: 2 nM
Activity [14]: > 50%
Activity [15]: < 50%
Activity [16]: > 50%
EC50 [17]: 1390 nM
Activity [18]: > 50%
Activity [19]: < 50%
IC50 [20]: 1210 nM
Activity [21]: > 50%
inhibition [22]: > 90%
Activity [23]: > 50%
Activity [24]: < 50%
Activity [25]: > 50%
Activity [26]: < 50%
Activity [27]: > 50%
Activity [28]: < 50%
Activity [29]: < 50%
inhibition [30]: > 90%
Activity [31]: < 50%

COc1cc2c(cc1Nc1nc(Nc3ccccc3C(C)(C)C)c3cc[nH]c3n1)CN(C)CC2
IC50 [1]: 386 nM

COc1cc2c(cc1Nc1nc(Nc3ccccc3S(=O)(=O)N(C)C)c3c(-c4c[nH]nc4C)c[nH]c3n1)CN(C)CC2
IC50 [1]: 3.5 nM

COc1cc2c(cc1Nc1nc(Nc3ccccc3S(=O)(=O)N(C)C)c3c(-c4cnccc4C)c[nH]c3n1)CN(C)CC2
IC50 [1]: 14 nM

CN(C)S(=O)(=O)c1ccccc1Nc1nc(Nc2ccc(N3CCOCC3)cc2)nc2[nH]cc(-c3cccnc3)c12
IC50 [1]: 5 nM
